Reference: patent US11840686B2, “Modulation of prekallikrein (PKK) expression” (Ionis Pharmaceuticals, Inc., priority 2013, dated 2023)
Strand notation (5' to 3'): a small letter for the sugar, then the base; units joined by * are phosphorothioate-linked, units joined directly phosphodiester-linked; [ ] holds rarer units or linkages, { } end groups; capitals alone tell only the bases. e = 2'-O-(2-methoxyethyl) (MOE); k = constrained ethyl (cEt); [5mC] = 5-methylcytosine; d = 2'-deoxy (DNA)

Tested on: human PKK mRNA
Assay: Antisense inhibition of human PKK mRNA in HepaRG cells, 1,000 nM, MOE/deoxy/cEt oligonucleotides (Example 3)
Type: cell-based
Conditions: human PKK mRNA, HepaRG cells, 1,000 nM antisense oligonucleotide
Outline: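 Readout is percent PKK mRNA reduction against untreated controls, by real-time PCR (RTS3454) adjusted for total RNA via RIBOGREEN. Oligonucleotides, phosphorothioate gapmers of 16 nucleosides with cEt, MOE and deoxy sugars, were delivered at 1,000 nM by electroporation to 20,000 HepaRG cells/well for roughly 24 h.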

Substance | % inhibition (Table 30) [%] | % inhibition (Table 28) [%]
548436 (antisense eA*eT*kA*dT*d[5mC]*dA*d[5mC]*dT*dG*dT*dA*d[5mC]*d[5mC]*kT*kG*eT) [compound 548436] | 8 | 
548437 (antisense eT*eA*kT*dA*dT*d[5mC]*dA*d[5mC]*dT*dG*dT*dA*d[5mC]*k[5mC]*kT*eG) [compound 548437] | 74 | 
548438 (antisense e[5mC]*eT*kA*dT*dA*dT*d[5mC]*dA*d[5mC]*dT*dG*dT*dA*k[5mC]*k[5mC]*eT) [compound 548438] | 38 | 
548439 (antisense e[5mC]*e[5mC]*kT*dA*dT*dA*dT*d[5mC]*dA*d[5mC]*dT*dG*dT*kA*k[5mC]*e[5mC]) [compound 548439] | 46 | 
548440 (antisense e[5mC]*e[5mC]*kT*dA*dT*dA*dA*d[5mC]*dA*dG*dT*dA*dT*k[5mC]*kA*e[5mC]) [compound 548440] | 32 | 
548441 (antisense eT*e[5mC]*k[5mC]*dT*dA*dT*dA*dA*d[5mC]*dA*dG*dT*dA*kT*k[5mC]*eA) [compound 548441] | 42 | 
548442 (antisense eT*eT*k[5mC]*d[5mC]*dT*dA*dT*dA*dA*d[5mC]*dA*dG*dT*kA*kT*e[5mC]) [compound 548442] | 17 | 
548443 (antisense eG*eT*kT*dT*d[5mC]*d[5mC]*dT*dA*dT*dA*dA*d[5mC]*dA*kG*kT*eA) [compound 548443] | 12 | 
548444 (antisense e[5mC]*eT*kA*dT*dG*dT*d[5mC]*dA*d[5mC]*dT*dG*dT*dA*k[5mC]*k[5mC]*eT) [compound 548444] | 43 | 
548445 (antisense e[5mC]*e[5mC]*kT*dA*dT*dG*dT*d[5mC]*dA*d[5mC]*dT*dG*dT*kA*k[5mC]*e[5mC]) [compound 548445] | 62 | 
548446 (antisense eT*e[5mC]*k[5mC]*dT*dA*dT*dG*dT*d[5mC]*dA*d[5mC]*dT*dG*kT*kA*e[5mC]) [compound 548446] | 16 | 
548447 (antisense e[5mC]*eA*k[5mC]*dT*dG*dT*d[5mC]*d[5mC]*dT*dA*dT*dG*dT*k[5mC]*kA*e[5mC]) [compound 548447] | 59 | 
548448 (eT*e[5mC]*kA*d[5mC]*dT*dG*dT*d[5mC]*d[5mC]*dT*dA*dT*dG*kT*k[5mC]*eA; antisense) [compound 548448] | 61 | 
548449 (eA*eT*k[5mC]*dA*d[5mC]*dT*dG*dT*d[5mC]*d[5mC]*dT*dA*dT*kG*kT*e[5mC]; antisense) [compound 548449] | 62 | 
548450 (e[5mC]*eT*kA*d[5mC]*d[5mC]*dT*dA*dT*dA*dA*d[5mC]*dT*d[5mC]*kT*kA*eA; antisense) [compound 548450] | 0 | 
548451 (eG*eT*k[5mC]*d[5mC]*dT*dA*dT*dA*dA*d[5mC]*dT*dA*dT*kA*kA*e[5mC]; antisense) [compound 548451] | 0 | 
548452 (eT*eA*kT*dA*dT*d[5mC]*dA*d[5mC]*dT*dG*dT*dA*d[5mC]*k[5mC]*kT*eA; antisense) [compound 548452] | 65 | 
548453 (eT*eA*k[5mC]*d[5mC]*dT*dA*dT*dA*dA*d[5mC]*dA*dG*dT*kA*kT*e[5mC]; antisense) [compound 548453] | 12 | 
548454 (eA*e[5mC]*kT*dG*dT*dA*d[5mC]*d[5mC]*dT*dA*dT*dA*dA*k[5mC]*kA*eG; antisense) [compound 548454] | 17 | 
548455 (e[5mC]*eA*k[5mC]*d[5mC]*dG*dT*dA*d[5mC]*dT*dA*dG*dT*dT*kT*k[5mC]*e[5mC]; antisense) [compound 548455] | 64 | 
548456 (eT*eA*kT*dA*dA*d[5mC]*dA*dG*dT*dA*dT*d[5mC]*dA*k[5mC]*k[5mC]*eG; antisense) [compound 548456] | 52 | 
548457 (e[5mC]*eT*kA*dT*dA*dA*d[5mC]*dA*dG*dT*dA*dT*d[5mC]*kA*k[5mC]*e[5mC]; antisense) [compound 548457] | 13 | 
548458 (eA*e[5mC]*k[5mC]*dT*dA*dT*dA*dA*d[5mC]*dT*dA*dT*dA*kA*k[5mC]*eA; antisense) [compound 548458] | 0 | 
548459 (e[5mC]*eA*kA*d[5mC]*dT*dA*dT*dA*dA*d[5mC]*dA*dG*dT*kA*kT*e[5mC]; antisense) [compound 548459] |  | 26
548460 (e[5mC]*eT*kA*dT*dA*d[5mC]*d[5mC]*dA*d[5mC]*dG*dG*dT*dA*kA*k[5mC]*eT; antisense) [compound 548460] |  | 0
548461 (e[5mC]*e[5mC]*kT*dA*dT*dA*dT*d[5mC]*dA*d[5mC]*dT*dG*dT*kA*kA*e[5mC]; antisense) [compound 548461] |  | 0
548462 (eA*e[5mC]*k[5mC]*dT*dA*dT*dA*dT*d[5mC]*dA*d[5mC]*dT*dG*kT*kA*eA; antisense) [compound 548462] |  | 0

Substance | % inhibition (Table 30) [%] | % inhibition (Table 28) [%]
548463 (eT*e[5mC]*kA*d[5mC]*dT*dG*dT*dA*d[5mC]*d[5mC]*dT*dA*dT*kA*kT*e[5mC]; antisense) [compound 548463] |  | 0
548464 (eG*eT*k[5mC]*d[5mC]*dT*dA*dT*dA*dA*d[5mC]*dT*dA*dT*kA*kT*e[5mC]; antisense) [compound 548464] |  | 0
548465 (e[5mC]*eT*kG*dT*dA*d[5mC]*d[5mC]*dT*dA*dT*dA*dA*d[5mC]*kT*kG*eT; antisense) [compound 548465] |  | 0
548466 (e[5mC]*eG*kT*d[5mC]*dA*d[5mC]*dT*dG*dT*dA*d[5mC]*d[5mC]*dT*kA*kT*eA; antisense) [compound 548466] |  | 71
548467 (e[5mC]*eA*kT*d[5mC]*dA*d[5mC]*dT*dG*dT*dA*d[5mC]*d[5mC]*dT*kA*kT*eA; antisense) [compound 548467] |  | 20
548468 (e[5mC]*eA*kA*d[5mC]*dA*dT*d[5mC]*dA*d[5mC]*dT*dG*dT*dA*k[5mC]*k[5mC]*eT; antisense) [compound 548468] |  | 6
548469 (eT*eT*k[5mC]*d[5mC]*d[5mC]*dT*dA*d[5mC]*d[5mC]*d[5mC]*d[5mC]*dT*dG*kG*kT*eA; antisense) [compound 548469] |  | 0
548470 (eG*eG*kT*dG*dG*dA*dA*dT*dG*dT*d[5mC]*dA*dT*kG*kG*e[5mC]; antisense) [compound 548470] |  | 56
548471 (eG*e[5mC]*kG*dG*dA*dA*dA*dA*d[5mC]*dT*dG*dG*d[5mC]*k[5mC]*kG*eT; antisense) [compound 548471] |  | 17
548472 (e[5mC]*e[5mC]*k[5mC]*dA*dA*dT*dA*d[5mC]*dA*dG*dG*dG*d[5mC]*k[5mC]*kA*eG; antisense) [compound 548472] |  | 0
548473 (e[5mC]*e[5mC]*kA*dA*d[5mC]*d[5mC]*dT*dT*d[5mC]*d[5mC]*d[5mC]*dA*dA*kT*k[5mC]*eT; antisense) [compound 548473] |  | 0
548474 (eG*eA*kA*dG*dG*dT*dG*dT*dG*d[5mC]*dT*dG*dT*k[5mC]*kG*e[5mC]; antisense) [compound 548474] |  | 33
548475 (eA*eT*k[5mC]*dG*dA*dG*dT*d[5mC]*d[5mC]*dT*dG*d[5mC]*d[5mC]*kT*k[5mC]*e[5mC]; antisense) [compound 548475] |  | 17
548476 (eG*e[5mC]*kA*dA*dA*dT*d[5mC]*d[5mC]*dT*dT*d[5mC]*d[5mC]*dA*kG*k[5mC]*eA; antisense) [compound 548476] |  | 27
548477 (eG*e[5mC]*kA*d[5mC]*dG*dA*dG*d[5mC]*dT*dT*dG*d[5mC]*d[5mC]*kT*kG*eT; antisense) [compound 548477] |  | 26
548478 (eG*eA*kG*d[5mC]*d[5mC]*dA*dT*d[5mC]*d[5mC]*dA*dG*dG*dG*kT*kG*e[5mC]; antisense) [compound 548478] |  | 53
548480 (eG*e[5mC]*k[5mC]*dA*d[5mC]*dG*d[5mC]*d[5mC]*d[5mC]*dT*dT*dA*dG*k[5mC]*kA*eG; antisense) [compound 548480] |  | 20
548481 (eG*eT*kT*d[5mC]*d[5mC]*d[5mC]*dT*dG*dA*dG*dG*dA*dA*k[5mC]*kG*eG; antisense) [compound 548481] |  | 2
548482 (eG*eG*k[5mC]*dA*dG*dT*dT*dA*dG*dG*d[5mC]*d[5mC]*dA*kG*kG*eA; antisense) [compound 548482] |  | 53
548483 (e[5mC]*eT*kA*d[5mC]*dA*dG*dA*dT*d[5mC]*dA*dT*d[5mC]*d[5mC]*k[5mC]*kT*eA; antisense) [compound 548483] |  | 5
548484 (e[5mC]*e[5mC]*k[5mC]*d[5mC]*dG*dG*dA*dG*d[5mC]*dA*d[5mC]*d[5mC]*dT*kT*k[5mC]*eA; antisense) [compound 548484] |  | 41
548485 (eG*eT*kG*dA*d[5mC]*d[5mC]*d[5mC]*dA*dA*dG*dG*dG*dT*k[5mC]*kG*eA; antisense) [compound 548485] |  | 17
548487 (eT*e[5mC]*k[5mC]*dA*dT*dG*dT*d[5mC]*dA*dG*dA*dG*dT*kT*kG*e[5mC]; antisense) [compound 548487] |  | 71
548488 (antisense e[5mC]*e[5mC]*kT*d[5mC]*d[5mC]*dT*dT*dT*dT*dG*dG*d[5mC]*dT*kT*kG*eA) [compound 548488] |  | 63
548489 (antisense eT*eT*k[5mC]*d[5mC]*d[5mC]*d[5mC]*dA*dG*dA*dG*dG*dT*dG*kA*kT*eA) [compound 548489] |  | 16
548490 (antisense eT*e[5mC]*kT*dG*dG*dT*dT*dA*dG*d[5mC]*d[5mC]*dT*d[5mC]*k[5mC]*kG*eA) [compound 548490] |  | 58
